Source: the NIST ThermoML archive (doi:10.1021/je900596d)

Settings: 353.12 K, Fluid (supercritical or subcritical phases), Vibrating tube method

FC(F)=C(F)C(F)(F)F [hexafluoropropene]
Settings | mass density [kg/m3]
251.4 kPa | 13.222
262.8 kPa | 13.844
272.6 kPa | 14.383
303.9 kPa | 16.11
313 kPa | 16.554
322.1 kPa | 17.107
330.9 kPa | 17.558
340 kPa | 18.069
349.1 kPa | 18.584
358.7 kPa | 19.177
369.1 kPa | 19.754
379.1 kPa | 20.272
389.1 kPa | 20.831
398.8 kPa | 21.42
402.9 kPa | 21.597
407.6 kPa | 21.905
413.1 kPa | 22.161
418.2 kPa | 22.524
427.2 kPa | 23.019
456.1 kPa | 24.636
465.8 kPa | 25.243
475.9 kPa | 25.82
485.6 kPa | 26.38
494.8 kPa | 26.85
499.7 kPa | 27.22
504.9 kPa | 27.48
509.8 kPa | 27.78
514.2 kPa | 28
524.1 kPa | 28.5
533.5 kPa | 29.18
538.4 kPa | 29.45
545.1 kPa | 30
567 kPa | 31.29
590.2 kPa | 32.66
613.6 kPa | 34.14
636.8 kPa | 35.5
660.1 kPa | 36.92
683.4 kPa | 38.37
706.6 kPa | 39.74
729.7 kPa | 41.24
752.5 kPa | 42.62
775.3 kPa | 44.06
796.9 kPa | 45.46
816.7 kPa | 46.73
836 kPa | 47.99
854.6 kPa | 49.09
872.3 kPa | 50.27
890.1 kPa | 51.44
907.5 kPa | 52.57
924.8 kPa | 53.65
942.1 kPa | 54.86
975.7 kPa | 57.1
992.2 kPa | 58.29
1023.7 kPa | 60.42
1038.9 kPa | 61.48
1054.5 kPa | 62.56
1070 kPa | 63.66
1085.8 kPa | 64.72
1101.6 kPa | 65.79
1116.8 kPa | 66.89
1131.5 kPa | 67.98
1146.8 kPa | 69
1161.5 kPa | 70.08
1205.5 kPa | 73.34
1219.6 kPa | 74.41
1247.6 kPa | 76.44
1261.7 kPa | 77.55
1275.7 kPa | 78.61
1303.4 kPa | 80.62
1330.3 kPa | 82.8
1356.9 kPa | 84.86
1383.3 kPa | 86.96
1408.9 kPa | 88.93
1434.2 kPa | 91.01
1459.3 kPa | 93.02
1483.9 kPa | 95.18
1508 kPa | 97.12
1531.3 kPa | 99.1
1554.6 kPa | 101.06
1577.1 kPa | 102.97
1599.7 kPa | 105.06
1621.5 kPa | 106.97
1643.3 kPa | 108.91
1664 kPa | 110.78
1684.8 kPa | 112.72
1705.1 kPa | 114.65
1725.3 kPa | 116.53
1745.4 kPa | 118.38
1764.4 kPa | 120.27
1783 kPa | 122.06
1801.8 kPa | 123.93
1819.8 kPa | 125.68
1837.5 kPa | 127.52
1854.8 kPa | 129.26
1871.7 kPa | 131.01
1887.6 kPa | 132.69
1901.9 kPa | 134.3
1921.8 kPa | 136.34
1936 kPa | 137.88
1955.9 kPa | 140.04
1970.5 kPa | 141.59
1990.1 kPa | 143.83
2027.5 kPa | 148.08
2047 kPa | 150.4
2061 kPa | 152.1
2079.9 kPa | 154.31
2102.5 kPa | 157.14
2119.5 kPa | 159.22
2136.1 kPa | 161.36
2152.9 kPa | 163.58
2175.2 kPa | 166.51
2194.7 kPa | 169.1
2217.5 kPa | 172.27
2237.1 kPa | 175.05
2258.4 kPa | 178.08
2276.1 kPa | 180.72
2293.5 kPa | 183.23
2310.9 kPa | 185.85
2329.3 kPa | 188.76
2343.8 kPa | 191.1
2361 kPa | 193.93
2378.6 kPa | 196.85
2393.5 kPa | 199.32
2410.2 kPa | 202.31
2428.4 kPa | 205.51
2442.4 kPa | 208.12
2463 kPa | 211.98
2479.5 kPa | 215.15
2502.3 kPa | 219.78
2520.3 kPa | 223.6
2540.4 kPa | 228.04
2560 kPa | 232.39
2575.6 kPa | 236.13
